From ChEMBL document CHEMBL1909046, “DrugMatrix in vitro pharmacology data”

Assays:
[1] = biological target: Sigma non-opioid intracellular receptor 1 (Homo sapiens, UniProt Q99720); experiment: DRUGMATRIX: Sigma1 radioligand binding (ligand: [3H] Haloperidol); type: cell membranes, Jurkat, Membrane; conditions: Not Active = under 50% inhibition at 10 µM
[2] = DRUGMATRIX: Sigma2 radioligand binding (ligand: [3H] Ifenprodil); type: cell membranes, Rattus norvegicus, Wistar, Brain, Membrane; conditions: Not Active = under 50% inhibition at 10 µM
Glucocorticoid receptor = biological target: T1, Glucocorticoid receptor (Homo sapiens, UniProt P04150); conditions: hela s3; also: in other assays of this panel Not Active means under 50% inhibition at 10 µM
T1 sequence (P04150 whole entry): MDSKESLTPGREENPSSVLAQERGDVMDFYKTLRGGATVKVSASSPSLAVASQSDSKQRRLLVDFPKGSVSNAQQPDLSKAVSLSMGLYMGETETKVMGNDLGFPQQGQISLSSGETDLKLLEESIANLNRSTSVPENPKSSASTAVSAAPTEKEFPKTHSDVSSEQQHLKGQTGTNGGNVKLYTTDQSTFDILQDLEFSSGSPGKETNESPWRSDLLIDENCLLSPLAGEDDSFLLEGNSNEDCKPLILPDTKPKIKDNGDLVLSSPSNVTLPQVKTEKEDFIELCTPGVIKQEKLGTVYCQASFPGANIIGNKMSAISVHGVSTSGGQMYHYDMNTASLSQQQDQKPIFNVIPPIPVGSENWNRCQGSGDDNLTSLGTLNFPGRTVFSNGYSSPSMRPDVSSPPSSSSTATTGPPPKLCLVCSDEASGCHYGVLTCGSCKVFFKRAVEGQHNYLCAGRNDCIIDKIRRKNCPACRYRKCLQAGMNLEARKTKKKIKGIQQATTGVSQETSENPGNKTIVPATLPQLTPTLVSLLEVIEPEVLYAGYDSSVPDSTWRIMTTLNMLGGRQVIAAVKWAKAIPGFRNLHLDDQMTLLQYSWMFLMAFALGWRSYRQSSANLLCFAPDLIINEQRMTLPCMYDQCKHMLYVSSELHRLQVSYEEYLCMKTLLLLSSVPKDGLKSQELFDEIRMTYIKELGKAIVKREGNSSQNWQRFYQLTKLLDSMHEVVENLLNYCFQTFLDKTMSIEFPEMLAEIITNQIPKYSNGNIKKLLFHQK

[3] = biological target: Tyrosine-protein kinase Fyn (Homo sapiens, UniProt P06241); experiment: biochemical; type: cell-based, Insect cells;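 also: enzymatic inhibition of Fyn kinase activity measured with Poly(Glu:Tyr) as the phosphorylation substrate; in other assays of this panel Not Active means under 50% inhibition at 10 µM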
Chain of Tyrosine-protein kinase Fyn (P06241 whole entry): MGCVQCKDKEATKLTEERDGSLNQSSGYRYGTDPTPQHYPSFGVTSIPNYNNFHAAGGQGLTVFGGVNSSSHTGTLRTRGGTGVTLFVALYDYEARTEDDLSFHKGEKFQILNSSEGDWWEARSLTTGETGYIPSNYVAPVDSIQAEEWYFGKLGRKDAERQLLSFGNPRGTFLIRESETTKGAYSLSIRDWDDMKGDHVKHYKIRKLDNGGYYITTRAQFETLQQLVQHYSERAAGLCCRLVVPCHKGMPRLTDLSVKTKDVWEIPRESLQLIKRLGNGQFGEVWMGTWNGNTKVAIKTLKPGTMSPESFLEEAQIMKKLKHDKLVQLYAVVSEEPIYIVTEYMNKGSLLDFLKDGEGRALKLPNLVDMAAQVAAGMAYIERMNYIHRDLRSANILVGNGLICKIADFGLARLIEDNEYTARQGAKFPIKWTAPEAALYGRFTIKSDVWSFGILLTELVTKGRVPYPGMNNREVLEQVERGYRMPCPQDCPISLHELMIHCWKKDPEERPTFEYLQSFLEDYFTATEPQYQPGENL

[4] = DRUGMATRIX: Nicotinic Acetylcholine radioligand binding (ligand: [125I] Epibatidine); type: cell membranes, Membrane; conditions: imr-32; Not Active = under 50% inhibition at 10 µM
[5] = biological target: Beta-1 adrenergic receptor (Homo sapiens, UniProt P08588); experiment: DRUGMATRIX: Adrenergic beta1 radioligand binding (ligand: [125I] Cyanopindolol); type: cell membranes, CHO-K1, Membrane; conditions: Not Active = under 50% inhibition at 10 µM
Chain of Beta-1 adrenergic receptor (P08588 whole entry): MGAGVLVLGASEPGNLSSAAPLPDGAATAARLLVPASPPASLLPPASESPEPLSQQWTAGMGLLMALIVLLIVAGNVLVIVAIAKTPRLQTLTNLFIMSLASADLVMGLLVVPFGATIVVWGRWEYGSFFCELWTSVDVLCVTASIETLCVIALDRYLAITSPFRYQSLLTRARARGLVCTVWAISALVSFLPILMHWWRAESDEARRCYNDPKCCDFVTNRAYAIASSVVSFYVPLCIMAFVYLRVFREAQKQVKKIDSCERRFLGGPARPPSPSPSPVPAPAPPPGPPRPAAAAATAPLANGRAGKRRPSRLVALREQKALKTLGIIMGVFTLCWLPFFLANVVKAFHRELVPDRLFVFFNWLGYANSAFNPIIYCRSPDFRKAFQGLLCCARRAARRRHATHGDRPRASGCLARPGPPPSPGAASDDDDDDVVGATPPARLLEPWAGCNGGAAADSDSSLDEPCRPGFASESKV

[6] = biological target: cGMP-specific 3',5'-cyclic phosphodiesterase (Homo sapiens, UniProt O76074); experiment: DRUGMATRIX: Phosphodiesterase PDE5 enzyme inhibition (substrate: [3H]cGMP + cGMP); type: tissue-based; conditions: platelet; Not Active = under 50% inhibition at 10 µM
Cytochrome P450 2C19 = Cytochrome P450 2C19 (Homo sapiens, UniProt P33261); conditions: bti-tn-5b1-4; also: in other assays of this panel Not Active means under 50% inhibition at 10 µM
Chain of Cytochrome P450 2C19 (P33261 whole entry): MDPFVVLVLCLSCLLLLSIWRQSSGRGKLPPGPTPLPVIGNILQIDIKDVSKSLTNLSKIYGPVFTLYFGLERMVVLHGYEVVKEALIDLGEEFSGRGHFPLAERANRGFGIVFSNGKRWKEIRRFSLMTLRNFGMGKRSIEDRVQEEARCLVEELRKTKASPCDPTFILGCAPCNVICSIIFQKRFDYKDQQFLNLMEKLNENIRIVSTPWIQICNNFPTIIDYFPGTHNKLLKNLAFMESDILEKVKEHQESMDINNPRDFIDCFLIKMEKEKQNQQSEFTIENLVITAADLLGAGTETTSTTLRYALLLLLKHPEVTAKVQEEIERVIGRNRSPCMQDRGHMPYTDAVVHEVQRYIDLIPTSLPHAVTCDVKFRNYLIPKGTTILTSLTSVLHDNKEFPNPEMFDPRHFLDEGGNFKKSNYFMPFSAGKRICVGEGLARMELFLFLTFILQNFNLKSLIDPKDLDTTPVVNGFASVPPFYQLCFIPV

[7] = biological target: T2, Cholecystokinin receptor type A (Homo sapiens, UniProt P32238); type: cell membranes, Membrane; conditions: 1321-n1; also: in other assays of this panel Not Active means under 50% inhibition at 10 µM
T2 sequence (P32238 whole entry): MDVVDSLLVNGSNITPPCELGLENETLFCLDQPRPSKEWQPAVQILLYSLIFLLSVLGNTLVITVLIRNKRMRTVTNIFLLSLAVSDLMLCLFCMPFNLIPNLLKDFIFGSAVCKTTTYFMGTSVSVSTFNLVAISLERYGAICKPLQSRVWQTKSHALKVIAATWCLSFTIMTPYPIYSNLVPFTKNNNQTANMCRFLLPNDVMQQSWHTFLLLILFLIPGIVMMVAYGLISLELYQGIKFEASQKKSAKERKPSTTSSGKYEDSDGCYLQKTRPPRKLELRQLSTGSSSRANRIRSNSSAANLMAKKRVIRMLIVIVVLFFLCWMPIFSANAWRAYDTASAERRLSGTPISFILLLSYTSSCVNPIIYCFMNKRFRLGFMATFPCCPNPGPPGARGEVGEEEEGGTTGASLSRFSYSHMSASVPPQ

Chain of Sigma non-opioid intracellular receptor 1 (Q99720 whole entry): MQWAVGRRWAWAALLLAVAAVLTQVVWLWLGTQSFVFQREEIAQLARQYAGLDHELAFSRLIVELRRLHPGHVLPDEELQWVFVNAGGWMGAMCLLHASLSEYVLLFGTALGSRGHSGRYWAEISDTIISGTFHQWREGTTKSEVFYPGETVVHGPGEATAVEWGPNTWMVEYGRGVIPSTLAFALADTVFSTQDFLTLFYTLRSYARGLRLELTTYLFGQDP

Structure (SMILES) | IC50 ([1]; jurkat) | IC50 [2] | Ki [2] | IC50 (Glucocorticoid receptor) | IC50 ([3]; insect cells) | IC50 [4] | Ki [4] | IC50 ([5]; cho-k1) | IC50 [6] | IC50 (Cytochrome P450 2C19) | Ki (Cytochrome P450 2C19) | IC50 [7] | IC50 ([3]; read-out: IC50) | IC50 ([5]; read-out: IC50) | Ki ([5]; read-out: Ki) | IC50 ([2]; read-out: IC50) | Ki ([2]; read-out: Ki) | IC50 ([1]; read-out: IC50) | Ki ([1]; read-out: Ki)
CC1=C(CC(=O)O)c2cc(F)ccc2/C1=C\c1ccc([S+](C)[O-])cc1 (stereo not given) | Not Active | Not Active | Not Active | Not Active | Not Active | Not Active | Not Active | Not Active | Not Active | Not Active | Not Active | Not Active |  |  |  |  |  |  | 
N[C@H](CSC(=S)NCc1ccccc1)C(=O)O | Not Active | Not Active | Not Active | Not Active | Not Active | Not Active | Not Active | Not Active | Not Active | Not Active | Not Active | Not Active |  |  |  |  |  |  | 
CC(=O)N[C@@H]1[C@H](Oc2c3cc4cc2Oc2ccc(cc2Cl)[C@@H](O[C@@H]2O[C@@H](CO)[C@@H](O)[C@H](O)[C@@H]2NC(C)=O)[C@@H]2NC(=O)[C@H](NC(=O)[C@@H]4NC(=O)[C@H]4NC(=O)[C@@H](Cc5ccc(c(Cl)c5)O3)NC(=O)[C@H](N)c3ccc(O)c(c3)Oc3cc(O)cc4c3)c3ccc(O)c(c3)-c3c(O[C@H]4O[C@H](CO)[C@@H](O)[C@@H](O)[C@@H]4O)cc(O)cc3[C@@H](C(=O)O)NC2=O)O[C@@H](CO)[C@@H](O)[C@@H]1O | Not Active | Not Active | Not Active | Not Active | Not Active | Not Active | Not Active | Not Active | Not Active | Not Active | Not Active | Not Active |  |  |  |  |  |  | 
Clc1ccc2c(c1)C(N1CCNCC1)=Nc1ccccc1O2 [AMOXAPINE] | Not Active |  |  | Not Active | Not Active |  |  | Not Active | Not Active | Not Active | Not Active | Not Active |  |  |  |  |  |  | 
COc1cc2c(c(OC)c1OC)-c1ccc(OC)c(=O)cc1[C@@H](NC(C)=O)CC2 [COLCHICINE] | Not Active |  |  | Not Active | Not Active |  |  | Not Active | Not Active | Not Active | Not Active | Not Active |  |  |  |  |  |  | 
CN1CCC(=C2c3ccccc3C=Cc3ccccc32)CC1 [CYPROHEPTADINE] | Not Active |  |  | Not Active | Not Active |  |  | Not Active | Not Active | Not Active | Not Active | Not Active |  |  |  |  |  |  | 
CC/C(=C(/CC)c1ccc(O)cc1)c1ccc(O)cc1 [DIETHYLSTILBESTROL] | Not Active |  |  |  |  |  |  |  | Not Active | Not Active | Not Active | Not Active | 14.2 µM | 22.1 µM | 12.8 µM |  |  |  | 
CC(=O)N1CCN(c2ccc(OCC3COC(Cn4ccnc4)(c4ccc(Cl)cc4Cl)O3)cc2)CC1 (stereo not given) [KETOCONAZOLE] | Not Active |  |  | Not Active | Not Active | Not Active | Not Active | Not Active | Not Active | Not Active | Not Active | Not Active |  |  |  | 15.9 µM | 9.79 µM |  | 
C=CCN1CC[C@]23c4c5ccc(O)c4O[C@H]2C(=O)CC[C@@]3(O)[C@H]1C5 [NALOXONE] | Not Active |  |  |  | Not Active |  |  | Not Active | Not Active |  |  | Not Active |  |  |  |  |  |  | 
COCCOC(=O)C1=C(C)NC(C)=C(C(=O)OC(C)C)C1c1cccc([N+](=O)[O-])c1 (stereo not given) [NIMODIPINE] | Not Active | Not Active | Not Active | Not Active | Not Active | Not Active | Not Active | Not Active | Not Active |  |  | Not Active |  |  |  |  |  |  | 
CC(C)NCC(O)COc1cccc2ccccc12 (stereo not given) [PROPRANOLOL] |  |  |  |  | Not Active |  |  |  | Not Active | Not Active | Not Active | Not Active |  |  |  |  |  | 2.87 µM | 1.21 µM
COCCCOc1ccnc(C[S+]([O-])c2nc3ccccc3[nH]2)c1C (stereo not given) [RABEPRAZOLE] | Not Active | Not Active | Not Active | Not Active | Not Active | Not Active | Not Active | Not Active | Not Active | Not Active | Not Active | Not Active |  |  |  |  |  |  | 
O=C(c1ccc(OCCN2CCCCC2)cc1)c1c(-c2ccc(O)cc2)sc2cc(O)ccc12 [RALOXIFENE] |  |  |  | Not Active |  | Not Active | Not Active | Not Active | Not Active |  |  | Not Active | 3.67 µM |  |  | 0.385 µM | 0.237 µM |  | 
CNC(=C[N+](=O)[O-])NCCSCc1ccc(CN(C)C)o1 [RANITIDINE] | Not Active | Not Active | Not Active | Not Active | Not Active | Not Active | Not Active | Not Active | Not Active | Not Active | Not Active | Not Active |  |  |  |  |  |  | 
CO[C@H]1/C=C/O[C@@]2(C)Oc3c(C)c(O)c4c(c3C2=O)C2=NC3(CCN(CC(C)C)CC3)NC2=C(NC(=O)/C(C)=C\C=C\[C@H](C)[C@H](O)[C@@H](C)[C@@H](O)[C@@H](C)[C@H](OC(C)=O)[C@@H]1C)C4=O [RIFABUTIN] | Not Active | Not Active | Not Active | Not Active | Not Active | Not Active | Not Active | Not Active | Not Active | Not Active | Not Active | Not Active |  |  |  |  |  |  | 
CC(C)c1nc(CN(C)C(=O)N[C@H](C(=O)N[C@@H](Cc2ccccc2)C[C@H](O)[C@H](Cc2ccccc2)NC(=O)OCc2cncs2)C(C)C)cs1 [RITONAVIR] | Not Active | Not Active | Not Active | Not Active | Not Active | Not Active | Not Active | Not Active | Not Active |  |  | Not Active |  |  |  |  |  |  | 
CC(C)CC(N(C)C)C1(c2ccc(Cl)cc2)CCC1 (stereo not given) [SIBUTRAMINE] | Not Active | Not Active | Not Active | Not Active | Not Active | Not Active | Not Active | Not Active | Not Active | Not Active | Not Active | Not Active |  |  |  |  |  |  | 
CC[C@]1(O)C[C@@H]2CN(CCc3c([nH]c4ccccc34)[C@@](C(=O)OC)(c3cc4c(cc3OC)N(C)[C@H]3[C@@](O)(C(=O)OC)[C@H](OC(C)=O)[C@]5(CC)C=CCN6CC[C@]43[C@@H]65)C2)C1 [VINBLASTINE] | Not Active | Not Active | Not Active | Not Active | Not Active | Not Active | Not Active | Not Active | Not Active |  |  | Not Active |  |  |  |  |  |  | 
CC(=O)CC(c1ccccc1)c1c(O)c2ccccc2oc1=O (stereo not given) [WARFARIN] | Not Active | Not Active | Not Active |  | Not Active | Not Active | Not Active | Not Active | Not Active | Not Active | Not Active | Not Active |  |  |  |  |  |  | 
C[C@@H](N)[C@H]1CC[C@H](C(=O)Nc2ccncc2)CC1 [Y-27632] | Not Active | Not Active | Not Active | Not Active | Not Active | Not Active | Not Active | Not Active | Not Active |  |  | Not Active |  |  |  |  |  |  | 
